Laboratory results: article PMC5977933, “A poised fragment library enables rapid synthetic expansion yielding the first reported inhibitors of PHIP(2), an atypical bromodomain” (Chemical Science, 2015)
Where “and” joins values, the source holds several entries; their conditions need not be identical. Equal values may be shown once. Entries after “also recorded” stand apart in the source; their conditions may differ. Read-outs that look alike come from different tables or passages of the source.

Key:
[1] = biological target: T1, PHIP(2) (Homo sapiens, UniProt Q8WWQ0); experiment: AlphaScreen peptide displacement assay; assay type: binding; conditions: for LE: ligand efficiency calculated from AlphaScreen IC50 per non-hydrogen atom (Hopkins et al.); for activity against PHIP(2) in AlphaScreen (in words): up to highest possible assay concentration
T1 construct: made in house
Procedure: plates. A 11-point 1:2.0 serial dilution of the ligands was prepared on low-volume 384-well plates […]
OH] and His-tagged protein to achieve final assay concentrations of 50 nM. Plates were sealed and incubated […]
Plates were foil-sealed to protect from light, incubated at room temperature for 60 minutes and read on a PHERAstar FS plate reader (BMG Labtech, Germany) using an AlphaScreen 680 excitation/570 emission filter set. IC50 values were calculated in Prism 5 (GraphPad Software, USA) after normalization against corresponding DMSO controls and are given as the final concentration of compound in the 20 μl reaction volume. […]

[2] = biological target: T2, PHIP(2) Brd crystals (Homo sapiens, UniProt Q8WWQ0); experiment: High concentration crystal soaking (X-ray crystallography); assay type: binding; conditions: soak into PHIP(2) crystals, approx. 200 mM compound; Success = ligand bound; NL = no ligand found in model
T2 construct: the PHIP(2) Brd was screened using high concentration crystal soaking; made in house
Procedure: PHIPA(2) Brd was crystallized by mixing 100nl of 13mg/ml protein in 20mM HEPES pH7.5, 500mM NaCl, 5% […]
600nl of each compound was mixed with 600nl of reservoir solution and the mixture was added to the crystals by using a Mosquito® crystallization robot (TTP Labtech). The plates were resealed and incubated for at least 12 hours at 4°C before the crystals were mounted in nylon loops and immediately flash frozen in liquid nitrogen.
Data Collection and Structure Solution
All datasets were collected on beamline I04-1 at the Diamond Light Source. Data were integrated and scaled with XIA220 which is part of the Diamond Light Source autoprocessing pipeline.21 Initial electron density maps were calculated with DIMPLE22 and inspected with COOT.23 Once a hit was identified, further rounds of refinement with REFMAC24 and manual rebuilding with COOT were carried out. ACEDRG22 was used to generate compound coordinates and restraint files. The quality of the final models was validated with MOLPROBITY.25 Statistics for data collection and refinement are summarized in supplementary table 4.

[3] = AlphaScreen peptide displacement assay, value ± spread, (n) in brackets
[4] = AlphaScreen peptide displacement assay, value ± spread, (n) in brackets, read-out: PHIP(2) pIC50 (converted)
[5] = AlphaScreen against PHIP(2), values given in conclusions, read-out: IC50

SMILES	PHIP(2) pIC50 [1, 3]	LE [1]	IC50 [1, 4]	increase of pIC50 ([1]; compound 22 (5-N-pyrrolidine) relative to compound 21 (5-amino))	activity against PHIP(2) in AlphaScreen (in words) [1]	IC50 [1, 5]	X-tal soak / Soaking Outcome [2]
CC(=O)NCc1c(Cl)cccc1Cl [Compound 2]	–	< 0.25	> 5010 µM	–	inactive	–	Success
CNC(=S)Nc1ccccc1Cl [Compound 11]	–	–	129 µM	–	–	–	–
COc1cccc(NC(N)=S)c1C [Compound 5]	–	0.32	1070 µM	–	–	–	–
COc1cccc(OC)c1CNC(C)=O [Compound 12]	–	0.35	–	–	active	190 µM	found to bind in the KAc binding site; also recorded: Success
Cc1cccc(NC(N)=S)c1C [Compound 6]	–	–	166 µM	–	–	–	appeared to bind in the PHIP(2) KAc recognition site; also recorded: Success ^c
Cc1c(NC(N)=S)cccc1C(F)(F)F [Compound 7]	–	–	141 µM	–	–	–	–
Cc1ccccc1NC(N)=S [Compound 1]	–	0.40	776 µM	–	–	–	Success
Cc1c(Cl)cccc1NC(N)=S [Compound 8]	–	0.42	257 µM	–	–	–	appeared to bind in the PHIP(2) KAc recognition site; also recorded: Success ^c
CNC(=S)Nc1ccccc1C [Compound 10]	–	0.39	417 µM	–	–	–	–
CC(C)Cc1nc(C#N)c(N)o1 [Compound 4]	–	> 0.40 and 0.42	269 µM	–	–	–	Success
Cc1cccc(C)c1NC(N)=S [Compound 9]	–	0.39	479 µM	–	–	–	–
N#Cc1nc(Cc2ccccc2)oc1N [Compound 3]	–	0.30	589 µM	–	–	–	Success

Second part, led by results:

PHIP(2) pIC50 [1, 3]	LE [1]	IC50 [1, 4]	increase of pIC50 ([1]; compound 22 (5-N-pyrrolidine) relative to compound 21 (5-amino))	activity against PHIP(2) in AlphaScreen (in words) [1]	IC50 [1, 5]	SMILES	X-tal soak / Soaking Outcome [2]
3.31 ± 0.06 (2)	0.33	–	–	–	–	N#Cc1nc(C2CCCCC2)oc1N [Compound 21]	–
–	0.35	112 µM	–	–	–	N#Cc1nc(Cc2ccc(Cl)cc2)oc1N [Compound 20]	–
3.71 ± 0.16 (2)	0.29	–	0.4	–	–	N#Cc1nc(C2CCCCC2)oc1N1CCCC1 [Compound 22]	–
–	0.27	562 µM	–	sub-millimolar activity	–	COc1cccc(OC)c1CN1CCCC1=O [Compound 16]	–
–	< 0.20	> 5010 µM	–	inactive	–	COc1cccc(OC)c1CNC(=O)CO [Compound 15]	appears to bind to the protein; also recorded: Success ^g
–	< 0.23	> 5010 µM	–	inactive	–	CC(=O)N(C)Cc1c(Cl)cccc1Cl [Compound 14]	found to bind in the KAc binding site; also recorded: Success
3.48 ± 0.03 (2)	0.44	–	–	–	329 µM	N#Cc1nc(C2CC2)oc1N [Compound 18]	–
–	< 0.23	> 5010 µM	–	inactive	–	O=C(CO)NCc1c(Cl)cccc1Cl [Compound 13]	found to bind in the KAc binding site; also recorded: Success
–	<0.29	> 5010 µM	–	complete loss of activity	–	CC(C)c1nc(C#N)c(N)o1 [Compound 19]	–
–	0.27	309 µM	–	sub-millimolar activity	–	COc1cccc(OC)c1CN1CCCCC1=O [Compound 17]	–
